Assay results as given in ChEMBL document CHEMBL3525908, “Chronic doxorubicin cardiotoxicity modulates cardiac cytochrome P450-mediated arachidonic acid metabolism in rats” (Drug Metab Dispos, 2012).

Experiments:
[1] = system: Rattus norvegicus; assay: Toxicity in Sprague-Dawley rat assessed as CYP4F1 gene expression in liver administered as cumulative dose of 15 mg/kg, ip divided into 6 injections for 2 weeks followed by compound washout period of 14 days by RT-PCR analysis relative to control; format: organism-based; parameters: dose 15 mg/kg, route intraperitoneal; conditions: in vivo, 336 h
[2] = system: Rattus norvegicus; assay: Toxicity in Sprague-Dawley rat assessed as CYP4F1 gene expression in kidney administered as cumulative dose of 15 mg/kg, ip divided into 6 injections for 2 weeks followed by compound washout period of 14 days by RT-PCR analysis relative to control; format: organism-based; parameters: dose 15 mg/kg, route intraperitoneal; conditions: in vivo, 336 h
[3] = system: Rattus norvegicus; assay: Induction of omega-1 hydroxylase-mediated arachidonic acid metabolism in Sprague-Dawley rat heart microsomes assessed as 19-HETE formation administered as cumulative dose of 15 mg/kg, ip divided into 6 injections for 2 weeks followed by compound washout period of 14 days by LC-ESI-MS analysis relative to control; format: ADME, organism-based; parameters: dose 15 mg/kg, route intraperitoneal; conditions: 336 h
[4] = system: H9c2; assay: Cytotoxicity against rat H9c2 cells assessed as reduction in ANP mRNA expression at 1 uM after 6 hrs in presence of t-AUCB; format: cell-based; conditions: h9c2, 6 h
[5] = system: Rattus norvegicus; assay: Toxicity in Sprague-Dawley rat assessed as induction of TNF-alpha gene expression in liver administered as cumulative dose of 15 mg/kg, ip divided into 6 injections for 2 weeks followed by compound washout period of 14 days by RT-PCR analysis relative to control; format: organism-based; parameters: dose 15 mg/kg, route intraperitoneal; conditions: 336 h
[6] = system: Rattus norvegicus; assay: Toxicity in Sprague-Dawley rat assessed as induction of IL-6 gene expression in liver administered as cumulative dose of 15 mg/kg, ip divided into 6 injections for 2 weeks followed by compound washout period of 14 days by RT-PCR analysis relative to control; format: organism-based; parameters: dose 15 mg/kg, route intraperitoneal; conditions: 336 h
[7] = system: CYP1A2; assay: Toxicity in Sprague-Dawley rat assessed as induction of CYP1A2 gene expression in liver administered as cumulative dose of 15 mg/kg, ip divided into 6 injections for 2 weeks followed by compound washout period of 14 days by RT-PCR analysis relative to control; format: organism-based; parameters: dose 15 mg/kg, route intraperitoneal
[8] = system: Rattus norvegicus; assay: Toxicity in Sprague-Dawley rat assessed as inhibition of CYP2B2 gene expression in liver administered as cumulative dose of 15 mg/kg, ip divided into 6 injections for 2 weeks followed by compound washout period of 14 days by RT-PCR analysis relative to control; format: organism-based; parameters: dose 15 mg/kg, route intraperitoneal; conditions: in vivo, 336 h
[9] = system: Rattus norvegicus; assay: Toxicity in Sprague-Dawley rat assessed as inhibition of CYP2C11 gene expression in liver administered as cumulative dose of 15 mg/kg, ip divided into 6 injections for 2 weeks followed by compound washout period of 14 days by RT-PCR analysis relative to control; format: organism-based; parameters: dose 15 mg/kg, route intraperitoneal; conditions: in vivo, 336 h
[10] = system: Rattus norvegicus; assay: Toxicity in Sprague-Dawley rat assessed as CYP4A3 gene expression in liver administered as cumulative dose of 15 mg/kg, ip divided into 6 injections for 2 weeks followed by compound washout period of 14 days by RT-PCR analysis relative to control; format: organism-based; parameters: dose 15 mg/kg, route intraperitoneal; conditions: in vivo, 336 h
[11] = system: Rattus norvegicus; assay: Cardiotoxicity in Sprague-Dawley rat assessed as increase in p53 gene expression level administered as cumulative dose of 15 mg/kg, ip divided into 6 injections for 2 weeks followed by compound washout period of 14 days by RT-PCR analysis relative to control; format: toxicity, organism-based; parameters: dose 15 mg/kg, route intraperitoneal; conditions: in vivo, 336 h
[12] = system: Rattus norvegicus; assay: Cardiotoxicity in Sprague-Dawley rat assessed as increase in Bax gene expression level administered as cumulative dose of 15 mg/kg, ip divided into 6 injections for 2 weeks followed by compound washout period of 14 days by RT-PCR analysis relative to control; format: toxicity, organism-based; parameters: dose 15 mg/kg, route intraperitoneal; conditions: in vivo, 336 h
[13] = system: Rattus norvegicus; assay: Cardiotoxicity in Sprague-Dawley rat assessed as increase in alpha-MHC gene expression level administered as cumulative dose of 15 mg/kg, ip divided into 6 injections for 2 weeks followed by compound washout period of 14 days by RT-PCR analysis relative to control; format: toxicity, organism-based; parameters: dose 15 mg/kg, route intraperitoneal; conditions: in vivo, 336 h

SMILES: COc1cccc2c1C(=O)c1c(O)c3c(c(O)c1C2=O)C[C@@](O)(C(=O)CO)C[C@@H]3O[C@H]1C[C@H](N)[C@H](O)[C@H](C)O1 [DOXORUBICIN]
- Activity [1]: Non-toxic
- Activity [2]: Non-toxic
- Activity [3]: Non-toxic
- Activity [4]: Toxic
- fold induction at 15 mg/kg [5]: 2.2
- fold induction at 15 mg/kg [6]: 4.5
- fold induction at 336 h [7]: 1.9
- Ratio [8]: 0.5
- Ratio [9]: 0.7
- Activity [10]: Non-toxic
- Ratio [11]: 1.7
- Ratio [12]: 1.9
- Ratio [13]: 1.6
